In article PMC8291587, “Guanidine Derivatives: How Simple Structural Modification of Histamine H3R Antagonists Has Led to the Discovery of Potent Muscarinic M2R/M4R Antagonists” (ACS Chemical Neuroscience, 2021):
Like-named read-outs stand apart in the source and are kept apart here.

Tests used:
[1] = tested on: electrically stimulated guinea pig ileum; test: Decrease of contractility in electrically stimulated guinea pig ileum (-log EC50 determination); conditions: for EC50: Cavia porcellus, read-out: Decrease of contractility (-logEC50 ± sem) (converted); for intrinsic activity (maximal response as fraction of maximal response of the system): from concentration–response curves
Method: A standard ex vivo assay based on the relaxant response of histamine H3R agonists to electrically driven guinea pig ileum was used to test the influence of ADS compounds on the reduction of electrically evoked tissue contraction. […] The −log EC50 value for RAMH and ADS compounds were evaluated. […] Following this, we decided to evaluate the ADS series as potential M2R/M3R ligands on the isolated guinea pig ileum.
Male guinea pigs, weighing 300–400 g, were euthanized by a blow to the neck. A 20–30 cm length of the distal ileum, apart from the terminal 5 cm, was rapidly removed and placed in phosphate buffer at room temperature (pH 7.4) containing (mM) NaCl (136.9), KCl (2.6), KH2PO4 (1.47), Na2HPO4 (9.58), and indomethacin (1 × 10^–6 mol/L)). The intraluminal content was rinsed, and the isolated intestine was cut into 1.5–2 cm segments. The preparations were mounted between two platinum electrodes isotonically in a 20 mL organ bath filled with Krebs buffer: composition (mM) NaCl (118), KCl (5.6), MgSO4 (1.18), CaCl2 (2.5), NaH2PO4·H2O (1.28), NaHCO3 (25), glucose (5.55), and indomethacin (3 × 10^–7 mol/L). The solution was continuously bubbled with a 95% O2:5% CO2 mixture and maintained at 37 °C under a constant load of 1.0 g (Hugo Sachs Hebel–Messvorsatz (Tl-2)/HF-modem; Hugo Sachs Elektronik, Hugstetten, Germany) connected to a pen recorder (Kipp & Zonen BD41, Delft, Holland). During an equilibration period of 60 min, Krebs buffer was changed every 10 min. Following this, the preparations were continuously stimulated at 15–20 V, at a frequency of 0.1 Hz for a duration of 0.5 ms, with rectangular-wave electrical pulses (Grass Stimulator S-88; Grass Instruments Co., Quincy, Massachusetts, USA). […] Cumulative concentration–response curve was determined to RAMH or tested agonist (10 nM to 10 mM) at increasing concentrations spaced by 3- or 3.3-fold. The agonist potency is expressed as pD2 value (−log EC50) ± sem.

hM5R = target: T1, hM5R (Homo sapiens, UniProt P08912); test: hM5R radioligand binding ([3H]NMS, CHO cell membranes)
T1 construct: host or cells: CHO cells, stably transfected; crude membranes
T1 sequence (P08912 1-532): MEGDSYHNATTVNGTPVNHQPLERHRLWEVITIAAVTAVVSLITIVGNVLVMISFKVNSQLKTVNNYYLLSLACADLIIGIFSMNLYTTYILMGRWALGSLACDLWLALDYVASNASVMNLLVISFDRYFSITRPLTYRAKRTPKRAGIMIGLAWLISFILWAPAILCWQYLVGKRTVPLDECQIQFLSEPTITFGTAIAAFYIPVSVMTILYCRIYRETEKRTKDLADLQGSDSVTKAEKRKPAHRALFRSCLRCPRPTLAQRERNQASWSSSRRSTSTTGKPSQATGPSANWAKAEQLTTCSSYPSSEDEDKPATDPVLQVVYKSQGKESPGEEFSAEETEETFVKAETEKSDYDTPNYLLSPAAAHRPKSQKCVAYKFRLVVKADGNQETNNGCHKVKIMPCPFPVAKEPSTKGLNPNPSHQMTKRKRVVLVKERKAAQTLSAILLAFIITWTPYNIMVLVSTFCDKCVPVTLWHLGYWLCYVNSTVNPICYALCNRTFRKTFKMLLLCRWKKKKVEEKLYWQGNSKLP
Method: To clearly explain the obtained outcome, we engaged the radioligand binding experiment. The hM1–hM5 radioligand binding experiments were performed in the membrane fractions of Chinese hamster ovary cells (CHO) stably expressing human variants of muscarinic receptors. N-[^3H]Methylscopolamine was used as the radiolabeled ligand.[39] Three compounds were selected from ex vivo screening on guinea pig ileum. […] This compound is also not completely selective for the remaining muscarinic receptor subtypes with −log Ki values over 6. […] It is also a potent muscarinic M1R antagonist, and the M1R/M2R selectivity ratio is <10. It is worth noting that such nonspecific anticholinergics are often associated with neuropsychiatric and cognitive disturbances and that nonselective muscarinic M1R/M2R antagonists, such as scopolamine, can produce cognitive deficits. Further structural modifications of ADS10227 should be used to increase selectivity toward the M2R, as these may present fewer potential side effects associated with the activation of the phospholipase C signaling pathway.
The culture was derived from CHO cells stably transfected with the genes of human variants of muscarinic receptors. These were purchased from Missouri S&T cDNA Resource Center (Rolla, MO, USA). Cell cultures and crude membranes were prepared as described previously.[45] […]
All radioligand binding experiments were optimized and carried out according to general guidelines.[39] […] N-Methylscopolamine binding was measured directly in saturation experiments using six concentrations (30–1000 pM) of [^3H]NMS during incubation for 1 h (M2R), 3 h (M1R, M3R, and M4R), or 5 h (M5R). For calculations of the equilibrium dissociation constant (KD), concentrations of free [^3H]NMS were calculated by subtraction of bound radioactivity from total radioactivity in the sample and fitting eq 1 (Experimental Data analysis section). The binding of the tested ligands was determined in competition experiments with 100 pM [^3H]NMS. […] Nonspecific binding was determined in the presence of 1 μM unlabeled atropine. […]

[2] = electrically stimulated guinea pig ileum
[3] = read-out: hM5R -log(Ki) ± sem (converted)

SMILES	EC50 [1]	Ki (hM5R; hM5R -log(Ki) ± sem)	EC50 [1, 2]	intrinsic activity (maximal response as fraction of maximal response of the system) [1, 2]	Ki (hM5R; [3])
N=C(N)N(CCCCN1CCN(CCCCCCCOc2ccccc2)CC1)Cc1ccccc1 [ADS1017]	661 nM	468 nM			
N=C(N)N(CCCCN1CCN(C[C@H]2CC[C@@H](COc3ccccc3)CC2)CC1)Cc1ccccc1 [ADS10227, 1-{4-{4-{[4-(phenoxymethyl)cyclohexyl]methyl}piperazin-1-yl}but-1-yl}-1-(benzyl)guanidine]			132 nM	0.97	195 nM
[H]/N=C(/N)N(CCCCN1CCN(CC2CCC(COc3ccccc3)CC2)CC1)Cc1ccc(C(F)(F)F)cc1 (centres unmarked) [ADS10239]			240 nM	0.98	832 nM
